Assay results reported in US8962528B2, “Penoxsulam as an herbicide in alfalfa” (Dow AgroSciences, LLC., priority 2011, dated 2015).

How the values were obtained:
[1] = system: POAAN = Poa annua, annual bluegrass; assay: Field trial of weed control in dormant alfalfa; type: in vivo; conditions: for Control % Visual POAAN: 45 DAAA, POST, NOV/JAN
Procedure: (§1) A field trial (California) was conducted in field-grown alfalfa using standard herbicide small plot research methodology. Plots were 7.5 ft by 20 ft long with 4 replicates per treatment. The alfalfa crop was already established the previous season and was grown using normal cultural practices for fertilization, seeding, watering, and maintenance to ensure good growth of the crop. All treatments in the field trials were applied using a CO2 backpack sprayer calibrated to apply 187 L/ha spray volume. Commercially available product of penoxsulam was mixed in water at appropriate formulated product rates to achieve the desired rates based on a unit area of application (hectare). Treatments were sprayed as a postemergence application to the soil when alfalfa was in the late dormant stage of growth. “Late dormant” growth stage is defined as when the crop is not actively growing during the winter season and just prior to emerging from dormancy and starting new growth for the growing season. Treatments were rated at 26 to 63 days after the application as compared to the untreated control plants, when the alfalfa crop was no longer dormant. Visual crop injury ratings were scored on a scale of 0 to 100 where 0 corresponds to no injury and 100 corresponds to complete control.

[2] = system: CAPBP = Capsella bursa-pastoris, Shepherd's purse; assay: Field trial of weed control in dormant alfalfa; type: in vivo; conditions: for Control % Visual CAPBP: 45 DAAA, POST, NOV/JAN
Procedure: as §1

[3] = system: STEME = Stellaria media, chickweed; assay: Field trial of weed control in dormant alfalfa; type: in vivo; conditions: for Control % Visual STEME: 45 DAAA, POST, NOV/JAN
Procedure: as §1

alfalfa = conditions: in vivo
Procedure: as §1

[4] = 35 gr ai/ha + AGRI-DEX COC 2.33 liter/ha
[5] = 70 gr ai/ha + AGRI-DEX COC 2.33 liter/ha
[6] = 140 gr ai/ha + AGRI-DEX COC 2.33 liter/ha
[7] = 45DAAA, all rates, burndown and/or residual activity

## COc1cnc(OC)n2nc(NS(=O)(=O)c3c(OCC(F)F)cccc3C(F)(F)F)nc12 [PENOXSULAM]
[1]; [4]
  Control % Visual POAAN: 65 b % Visual
[1]; [5]
  Control % Visual POAAN: 79 ab % Visual
[1]; [6]
  Control % Visual POAAN: 91 a % Visual
[1]; 45DAAA, dependent on the rate applied
  control of grass weed POAAN (annual bluegrass): significant suppression/partial control
[2]; [4]
  Control % Visual CAPBP: 100 a % Visual
[2]; [5]
  Control % Visual CAPBP: 100 a % Visual
[2]; [6]
  Control % Visual CAPBP: 100 a % Visual
[2]; [7]
  control of CAPBP (Sheperd's purse): 100%
[3]; [4]
  Control % Visual STEME: 100 a % Visual
[3]; [5]
  Control % Visual STEME: 100 a % Visual
[3]; [6]
  Control % Visual STEME: 100 a % Visual
[3]; [7]
  control of STEME (chickweed): 100%
alfalfa
  % Visual Injury of alfalfa compared to the Untreated: some slight visual injury
  alfalfa growth (% Visual Regrowth) as compared to the Untreated: no effect
  alfalfa regrowth as compared to the Untreated: no significant difference
